Results reported in patent publication US9145392B2, “Imidazole amines as modulators of kinase activity” (Merck Patent GmbH, priority 2011, dated 2015).

Experiments:
His-AKT (Full Length) = His-AKT (Full Length) (Homo sapiens (Human), UniProt P31749); experiment: AKT enzyme assay; format: biochemical; settings: read-out: IC50 AKT
P70S6K (T412E mutant) = P70S6K (T412E mutant) (Homo sapiens (Human), UniProt P23443, T412E); experiment: P70S6K enzyme assay; format: biochemical; settings: read-out: IC50 p70S6K
Summary of the method: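 Read-out is the substrate/phosphopeptide ratio from mobility-shift electrophoresis on a LabChip 3000.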

Sequence of His-AKT (Full Length) (P31749 whole entry): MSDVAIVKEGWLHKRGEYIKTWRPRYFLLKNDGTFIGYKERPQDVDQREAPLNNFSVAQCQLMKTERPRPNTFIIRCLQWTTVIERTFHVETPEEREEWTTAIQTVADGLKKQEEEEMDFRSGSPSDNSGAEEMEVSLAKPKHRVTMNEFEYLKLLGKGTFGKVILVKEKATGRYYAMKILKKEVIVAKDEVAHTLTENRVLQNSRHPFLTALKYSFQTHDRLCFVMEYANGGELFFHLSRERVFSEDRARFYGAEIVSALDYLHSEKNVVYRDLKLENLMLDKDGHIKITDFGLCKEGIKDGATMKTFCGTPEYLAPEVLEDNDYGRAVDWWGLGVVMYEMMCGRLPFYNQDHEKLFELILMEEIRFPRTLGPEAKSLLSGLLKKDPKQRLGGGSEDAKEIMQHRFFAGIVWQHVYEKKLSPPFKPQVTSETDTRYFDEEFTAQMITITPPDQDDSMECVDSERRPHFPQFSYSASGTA
Sequence of P70S6K (T412E mutant) (P23443 whole entry T412E): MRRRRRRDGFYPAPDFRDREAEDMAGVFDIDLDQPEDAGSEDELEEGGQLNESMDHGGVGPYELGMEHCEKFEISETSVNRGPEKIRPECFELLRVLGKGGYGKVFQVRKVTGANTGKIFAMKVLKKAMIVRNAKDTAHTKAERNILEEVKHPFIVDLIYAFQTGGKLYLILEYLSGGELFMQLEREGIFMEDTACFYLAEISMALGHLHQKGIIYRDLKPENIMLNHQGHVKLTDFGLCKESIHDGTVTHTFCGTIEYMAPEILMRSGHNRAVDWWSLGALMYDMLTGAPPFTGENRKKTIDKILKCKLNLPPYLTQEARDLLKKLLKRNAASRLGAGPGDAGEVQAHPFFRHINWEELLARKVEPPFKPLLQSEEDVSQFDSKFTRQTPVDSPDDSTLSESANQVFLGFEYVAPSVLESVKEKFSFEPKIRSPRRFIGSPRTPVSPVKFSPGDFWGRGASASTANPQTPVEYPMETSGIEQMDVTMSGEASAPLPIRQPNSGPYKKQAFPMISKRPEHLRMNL

IC50 (His-AKT (Full Length)) [nM] | IC50 (P70S6K (T412E mutant)) [nM] | SMILES
> 10000 | > 10000 | N#Cc1c(N)ncnc1N1CCC(c2nc(-c3cccc(S(N)(=O)=O)c3)cn2CCN2CCC2)CC1 [Compound 354, 3-[2-[1-(6-Amino-5-cyano-pyrimidin-4-yl)-piperidin-4-yl]-1-(2-azetidin-1-yl-ethyl)-1H-imidazol-4-yl]-benzenesulfonamide]
80 | 17 | CS(=O)(=O)c1cccc(-c2cn(CCN3CCC3)c(C3CCN(c4ncnc(N)c4C#N)CC3)n2)c1 [Compound 355, 4-Amino-6-{4-[1-(2-azetidin-1-yl-ethyl)-4-(3-methanesulfonyl-phenyl)-1H-imidazol-2-yl]-piperidin-1-yl}-pyrimidine-5-carbonitrile]
560 | 80 | CS(=O)(=O)c1cccc(-c2cn(CCN3CCC3)c(C3CCN(c4ncnc(N)c4C(N)=O)CC3)n2)c1 [Compound 356, 4-Amino-6-{4-[1-(2-azetidin-1-yl-ethyl)-4-(3-methanesulfonyl-phenyl)-1H-imidazol-2-yl]-piperidin-1-yl}-pyrimidine-5-carboxylic acid amide]
130 | 0.8 | N#Cc1c(N)ncnc1N1CCC(c2nc(-c3ccc(F)c(C(F)(F)F)c3)cn2CCO)CC1 [Compound 357, 4-Amino-6-{4-[4-(4-fluoro-3-trifluoromethyl-phenyl)-1-(2-hydroxy-ethyl)-1H-imidazol-2-yl]-piperidin-1-yl}-pyrimidine-5-carbonitrile]
1.6 | 1.1 | N#Cc1c(N)ncnc1N1CCC(c2nc(-c3ccc(F)c(C(F)(F)F)c3)cn2CCNCC2CC2)CC1 [Compound 358, 4-Amino-6-{4-[1-[2-(cyclopropylmethyl-amino)-ethyl]-4-(4-fluoro-3-trifluoromethyl-phenyl)-1H-imidazol-2-yl]-piperidin-1-yl}-pyrimidine-5-carbonitrile]
12 | 2.7 | NC(=O)c1c(N)ncnc1N1CCC(c2nc(-c3ccc(F)c(C(F)(F)F)c3)cn2CCNCC2CC2)CC1 [Compound 359, 4-Amino-6-{4-[1-[2-(cyclopropylmethyl-amino)-ethyl]-4-(4-fluoro-3-trifluoromethyl-phenyl)-1H-imidazol-2-yl]-piperidin-1-yl}-pyrimidine-5-carboxylic acid amide]
2.7 | 2.2 | CC(C)N(C)CCn1cc(-c2ccc(F)c(C(F)(F)F)c2)nc1C1CCN(c2ncnc(N)c2C#N)CC1 [Compound 360, 4-Amino-6-(4-{4-(4-fluoro-3-trifluoromethyl-phenyl)-1-[2-(isopropyl-methyl-amino)-ethyl]-1H-imidazol-2-yl}-piperidin-1-yl)-pyrimidine-5-carbonitrile]
11 | 6.4 | CC(C)N(C)CCn1cc(-c2ccc(F)c(C(F)(F)F)c2)nc1C1CCN(c2ncnc(N)c2C(N)=O)CC1 [Compound 361, 4-Amino-6-(4-{4-(4-fluoro-3-trifluoromethyl-phenyl)-1-[2-(isopropyl-methyl-amino)-ethyl]-1H-imidazol-2-yl}-piperidin-1-yl)-pyrimidine-5-carboxylic acid amide]
76 | 4.1 | CN(C)CCN(C)CCn1cc(-c2ccc(F)c(C(F)(F)F)c2)nc1C1CCN(c2ncnc(N)c2C#N)CC1 [Compound 362, 4-Amino-6-{4-[1-{2-[(2-dimethylamino-ethyl)-methyl-amino]-ethyl}-4-(4-fluoro-3-trifluoromethyl-phenyl)-1H-imidazol-2-yl]-piperidin-1-yl}-pyrimidine-5-carbonitrile]
26 | 3.4 | COCCN(C)CCn1cc(-c2ccc(F)c(C(F)(F)F)c2)nc1C1CCN(c2ncnc(N)c2C#N)CC1 [Compound 363, 4-Amino-6-[4-(4-(4-fluoro-3-trifluoromethyl-phenyl)-1-{2-[(2-methoxy-ethyl)-methyl-amino]-ethyl}-1H-imidazol-2-yl)-piperidin-1-yl]-pyrimidine-5-carbonitrile]
2.5 | 1.4 | COCCNCCn1cc(-c2ccc(F)c(C(F)(F)F)c2)nc1C1CCN(c2ncnc(N)c2C#N)CC1 [Compound 364, 4-Amino-6-(4-{4-(4-fluoro-3-trifluoromethyl-phenyl)-1-[2-(2-methoxy-ethylamino)-ethyl]-1H-imidazol-2-yl}-piperidin-1-yl)-pyrimidine-5-carbonitrile]
730 | 6.3 | CN(C)CCN(C)CCn1cc(-c2ccc(F)c(C(F)(F)F)c2)nc1C1CCN(c2ncnc(N)c2C(N)=O)CC1 [Compound 365, 4-Amino-6-{4-[1-{2-[(2-dimethylamino-ethyl)-methyl-amino]-ethyl}-4-(4-fluoro-3-trifluoromethyl-phenyl)-1H-imidazol-2-yl]-piperidin-1-yl}-pyrimidine-5-carboxylic acid amide]
440 | 9.2 | COCCN(C)CCn1cc(-c2ccc(F)c(C(F)(F)F)c2)nc1C1CCN(c2ncnc(N)c2C(N)=O)CC1 [Compound 366, 4-Amino-6-[4-(4-(4-fluoro-3-trifluoromethyl-phenyl)-1-{2-[(2-methoxy-ethyl)-methyl-amino]-ethyl}-1H-imidazol-2-yl)-piperidin-1-yl]-pyrimidine-5-carboxylic acid amide]
67 | 4 | COCCNCCn1cc(-c2ccc(F)c(C(F)(F)F)c2)nc1C1CCN(c2ncnc(N)c2C(N)=O)CC1 [Compound 367, 4-Amino-6-(4-{4-(4-fluoro-3-trifluoromethyl-phenyl)-1-[2-(2-methoxy-ethylamino)-ethyl]-1H-imidazol-2-yl}-piperidin-1-yl)-pyrimidine-5-carboxylic acid amide]
760 | 21 | CN(CCn1cc(-c2ccc(F)c(C(F)(F)F)c2)nc1C1CCN(c2ncnc(N)c2C(N)=O)CC1)Cc1ccccc1 [Compound 368, 4-Amino-6-{4[1-[2-(benzyl-methyl-amino)-ethyl]-4-(4-fluoro-3-trifluoromethyl-phenyl)-1H-imidazol-2-yl]-piperidin-1-yl}-pyrimidine-5-carboxylic acid amide]
5.4 | 3.6 | CC(C)NCCn1cc(-c2ccc(F)c(C(F)(F)F)c2)nc1C1CCN(c2ncnc(N)c2C#N)CC1 [Compound 369, 4-Amino-6-{4-[4-(4-fluoro-3-trifluoromethyl-phenyl)-1-(2-isopropylamino-ethyl)-1H-imidazol-2-yl]-piperidin-1-yl}-pyrimidine-5-carbonitrile]
2.5 | 0.9 | CC(C)NCCn1cc(-c2ccc(F)c(C(F)(F)F)c2)nc1C1CCN(c2ncnc(N)c2C(N)=O)CC1 [Compound 370, 4-Amino-6-{4-[4-(4-fluoro-3-trifluoromethyl-phenyl)-1-(2-isopropylamino-ethyl)-1H-imidazol-2-yl]-piperidin-1-yl}-pyrimidine-5-carboxylic acid amide]
85 | 18 | COCC(C)NCCn1cc(-c2ccc(F)c(C(F)(F)F)c2)nc1C1CCN(c2ncnc(N)c2C(N)=O)CC1 (centres unmarked) [Compound 371, 4-Amino-6-(4-{4-(4-fluoro-3-trifluoromethyl-phenyl)-1-[2-(2-methoxy-1-methyl-ethylamino)-ethyl]-1H-imidazol-2-yl}-piperidin-1-yl)-pyrimidine-5-carboxylic acid amide]
0.7 | 0.2 | CC(C)CNCCn1cc(-c2ccc(F)c(C(F)(F)F)c2)nc1C1CCN(c2ncnc(N)c2C#N)CC1 [Compound 372, 4-Amino-6-{4-[4-(4-fluoro-3-trifluoromethyl-phenyl)-1-(2-isobutylamino-ethyl)-1H-imidazol-2-yl]-piperidin-1-yl}-pyrimidine-5-carbonitrile]
12 | 2.9 | CC(C)CNCCn1cc(-c2ccc(F)c(C(F)(F)F)c2)nc1C1CCN(c2ncnc(N)c2C(N)=O)CC1 [Compound 373, 4-Amino-6-{4-[4-(4-fluoro-3-trifluoromethyl-phenyl)-1-(2-isobutylamino-ethyl)-1H-imidazol-2-yl]-piperidin-1-yl}-pyrimidine-5-carboxylic acid amide]
1.5 | 0.4 | CNCCn1cc(-c2ccc(F)c(C(F)(F)F)c2)nc1C1CCN(c2ncnc(N)c2C#N)CC1 [Compound 374, 4-Amino-6-{4-[4-(4-fluoro-3-trifluoromethyl-phenyl)-1-(2-methylamino-ethyl)-1H-imidazol-2-yl]-piperidin-1-yl}-pyrimidine-5-carbonitrile]
1.9 | 1.3 | CC(C)(C)NCCn1cc(-c2ccc(F)c(C(F)(F)F)c2)nc1C1CCN(c2ncnc(N)c2C#N)CC1 [Compound 375, 4-Amino-6-{4-[1-(2-tert-butylamino-ethyl)-4-(4-fluoro-3-trifluoromethyl-phenyl)-1H-imidazol-2-yl]-piperidin-1-yl}-pyrimidine-5-carbonitrile]
33 | 3.4 | CNCCn1cc(-c2ccc(F)c(C(F)(F)F)c2)nc1C1CCN(c2ncnc(N)c2C(N)=O)CC1 [Compound 376, 4-Amino-6-{4-[4-(4-fluoro-3-trifluoromethyl-phenyl)-1-(2-methylamino-ethyl)-1H-imidazol-2-yl]-piperidin-1-yl}-pyrimidine-5-carboxylic acid amide]
9.7 | 2 | CC(C)(C)NCCn1cc(-c2ccc(F)c(C(F)(F)F)c2)nc1C1CCN(c2ncnc(N)c2C(N)=O)CC1 [Compound 377, 4-Amino-6-{4-[1-(2-tert-butylamino-ethyl)-4-(4-fluoro-3-trifluoromethyl-phenyl)-1H-imidazol-2-yl]-piperidin-1-yl}-pyrimidine-5-carboxylic acid amide]
2.3 | 0.8 | Cc1cc(-c2cn(CCNCC3CC3)c(C3CCN(c4ncnc(N)c4C#N)CC3)n2)ccc1F [Compound 378, 4-Amino-6-{4-[1-[2-(cyclopropylmethyl-amino)-ethyl]-4-(4-fluoro-3-methyl-phenyl)-1H-imidazol-2-yl]-piperidin-1-yl}-pyrimidine-5-carbonitrile]
